ChEMBL document CHEMBL5576052, “Design, synthesis, and biological evaluation of new bis-benzylisoquinoline-based analogues as potential neuromuscular blocking agents” (Bioorg Med Chem Lett, 2024)

Key:
Assay type in all cases: functional
Oryctolagus cuniculus [1] = assay: Neuromuscular blocking in rabbit model of propofol-induced anesthesia assessed as maximal blockade at 272.7 nmol/kg by train-of-four response method relative to control
Oryctolagus cuniculus [2] = assay: Neuromuscular blocking in rabbit model of propofol-induced anesthesia assessed as time duration of 25 to 90 percent recovery indices at 27.27 nmol/kg by train-of-four response method
Oryctolagus cuniculus [3] = assay: Neuromuscular blocking in rabbit model of propofol-induced anesthesia assessed as onset time at 272.7 nmol/kg by train-of-four response method
Oryctolagus cuniculus [4] = assay: Neuromuscular blocking in rabbit model of propofol-induced anesthesia assessed as time duration of 25 to 75 percent recovery indices at 272.7 nmol/kg by train-of-four response method
Oryctolagus cuniculus [5] = assay: Neuromuscular blocking in rabbit model of propofol-induced anesthesia assessed as time duration of 25 to 90 percent recovery indices at 272.7 nmol/kg by train-of-four response method
Oryctolagus cuniculus [6] = assay: Neuromuscular blocking in rabbit model of propofol-induced anesthesia assessed as effective blocking time by measuring duration from administration to 25 percent recovery at 272.7 nmol/kg by train-of-four response method
Oryctolagus cuniculus [7] = assay: Neuromuscular blocking in rabbit model of propofol-induced anesthesia assessed as duration of time for maximal blockade at 27.27 nmol/kg by train-of-four response method
Oryctolagus cuniculus [8] = assay: Neuromuscular blocking in rabbit model of propofol-induced anesthesia assessed as duration of time for maximal blockade at 272.7 nmol/kg by train-of-four response method
Oryctolagus cuniculus [9] = assay: Neuromuscular blocking in rabbit model of propofol-induced anesthesia assessed as onset time at 27.27 nmol/kg by train-of-four response method
Oryctolagus cuniculus [10] = assay: Neuromuscular blocking in rabbit model of propofol-induced anesthesia assessed as maximal blockade at 27.27 nmol/kg by train-of-four response method relative to control
Oryctolagus cuniculus [11] = assay: Neuromuscular blocking in rabbit model of propofol-induced anesthesia assessed as time duration of 25 to 75 percent recovery indices at 27.27 nmol/kg by train-of-four response method
Oryctolagus cuniculus [12] = assay: Neuromuscular blocking in rabbit model of propofol-induced anesthesia assessed as effective blocking time by measuring duration from administration to 25 percent recovery at 27.27 nmol/kg by train-of-four response method

| SMILES | Emax at 0.2727 µmol/kg (Oryctolagus cuniculus [1]) [%] | Time (Oryctolagus cuniculus [2]) [min] | Time (Oryctolagus cuniculus [3]) [min] | Time (Oryctolagus cuniculus [4]) [min] | Time (Oryctolagus cuniculus [5]) [min] | Time (Oryctolagus cuniculus [6]) [min] | Time (Oryctolagus cuniculus [7]) [min] | Time (Oryctolagus cuniculus [8]) [min] | Time (Oryctolagus cuniculus [9]) [min] | Emax at 0.02727 µmol/kg (Oryctolagus cuniculus [10]) [%] | Time (Oryctolagus cuniculus [11]) [min] | Time (Oryctolagus cuniculus [12]) [min] |
| --- | --- | --- | --- | --- | --- | --- | --- | --- | --- | --- | --- | --- |
| COc1cc2c(cc1OC)[C@@H](Cc1cc(OC)c(OC)c(OC)c1)[N+](C)(CCCOC(=O)CCCCC(=O)OCCC[N+]1(C)CCc3cc(OC)c(OC)cc3[C@H]1Cc1cc(OC)c(OC)c(OC)c1)CC2.[Cl-].[Cl-] (stereo not given in full) | 100 | 11.67 | 0.63 | 6.38 | 8.13 | 38 | 2 | 35 | 2.75 | 100 | 9.67 | 5.17 |
| COc1cc2c(cc1OC)[C@@H](Cc1cc(OC)c(OC)c(OC)c1)[N+](C)(CCCOC(=O)Cc1ccc(CC(=O)OCCC[N+]3(C)CCc4cc(OC)c(OC)cc4[C@H]3Cc3cc(OC)c(OC)c(OC)c3)cc1)CC2.[Cl-].[Cl-] (stereo not given in full) | 100 |  | 0.92 | 8 | 10.83 | 18.08 |  | 14.83 |  |  |  |  |
| CC[N+]1(CCCOC(=O)CC/C=C/CCC(=O)OCCC[N+]2(CC)CCc3cc(OC)c(OC)cc3[C@H]2Cc2cc(OC)c(OC)c(OC)c2)CCc2cc(OC)c(OC)cc2[C@H]1Cc1cc(OC)c(OC)c(OC)c1.[Cl-].[Cl-] (stereo not given in full) | 100 |  | 0.75 | 6.42 | 9.67 | 14 |  | 11.75 |  |  |  |  |
| C=CC[N+]1(CCCOC(=O)CC/C=C/CCC(=O)OCCC[N+]2(CC=C)CCc3cc(OC)c(OC)cc3[C@H]2Cc2cc(OC)c(OC)c(OC)c2)CCc2cc(OC)c(OC)cc2[C@H]1Cc1cc(OC)c(OC)c(OC)c1 (stereo not given in full) | 92 |  |  |  |  |  |  |  |  |  |  |  |
| COc1cc2c(cc1OC)[C@@H](Cc1cc(OC)c(OC)c(OC)c1)[N+](C)(CCCOC(=O)CC(C)(C)CC(=O)OCCC[N+]1(C)CCc3cc(OC)c(OC)cc3[C@H]1Cc1cc(OC)c(OC)c(OC)c1)CC2.[Cl-].[Cl-] (stereo not given in full) | 100 |  | 1.25 | 9.92 | 12.58 | 21.58 |  | 18.75 |  |  |  |  |
| C=CC[N@+]1(CCCOC(=O)CC/C=C/CCC(=O)OCCC[N@@+]2(CC=C)CCc3cc(OC)c(OC)cc3[C@H]2Cc2cc(OC)c(OC)c(OC)c2)CCc2cc(OC)c(OC)cc2[C@H]1Cc1cc(OC)c(OC)c(OC)c1.[Cl-].[Cl-] | 100 |  | 1.42 | 13.25 | 21.83 | 6.92 |  | 4.75 |  |  |  |  |
| COc1cc2c(cc1OC)[C@@H](Cc1cc(OC)c(OC)c(OC)c1)[N@@+](C)(CCCOC(=O)CC/C=C/CCC(=O)OCCC[N@@+]1(C)CCc3cc(OC)c(OC)cc3[C@H]1Cc1cc(OC)c(OC)c(OC)c1)CC2 | 0 |  |  |  |  |  |  |  |  |  |  |  |
| COc1cc2c(cc1OC)[C@@H](Cc1cc(OC)c(OC)c(OC)c1)[N+](C)(CCC(=O)OCC#CC#CCOC(=O)CC[N+]1(C)CCc3cc(OC)c(OC)cc3[C@H]1Cc1cc(OC)c(OC)c(OC)c1)CC2.O=S(=O)([O-])c1ccccc1.O=S(=O)([O-])c1ccccc1 (stereo not given in full) | 100 |  | 1.42 | 6.92 | 12 | 5.83 |  | 4.75 |  |  |  |  |
| COc1cc2c(cc1OC)[C@@H](Cc1cc(OC)c(OC)c(OC)c1)[N+](C)(CCC(=O)OCCCCOC(=O)CC[N+]1(C)CCc3cc(OC)c(OC)cc3[C@H]1Cc1cc(OC)c(OC)c(OC)c1)CC2.O=S(=O)([O-])c1ccccc1.O=S(=O)([O-])c1ccccc1 (stereo not given in full) | 100 |  | 1.25 | 8.17 | 13.67 | 23.08 |  | 18.58 |  |  |  |  |
| CC[N@+]1(CCCOC(=O)CC/C=C/CCC(=O)OCCC[N@@+]2(CC)CCc3cc(OC)c(OC)cc3[C@H]2Cc2cc(OC)c(OC)c(OC)c2)CCc2cc(OC)c(OC)cc2[C@H]1Cc1cc(OC)c(OC)c(OC)c1.[Cl-].[Cl-] | 100 |  | 1.08 | 10.58 | 15.25 | 14.67 |  | 11.58 |  |  |  |  |
| COc1cc2c(cc1OC)[C@@H](Cc1cc(OC)c(OC)c(OC)c1)[N+](C)(CCC(=O)OCC#CCOC(=O)CC[N+]1(C)CCc3cc(OC)c(OC)cc3[C@H]1Cc1cc(OC)c(OC)c(OC)c1)CC2 (stereo not given in full) | 85 |  |  |  |  |  |  |  |  |  |  |  |
| COc1cc2c(cc1OC)[C@@H](Cc1cc(OC)c(OC)c(OC)c1)[N+](C)(CCC(=O)OC/C(Br)=C(\Br)COC(=O)CC[N+]1(C)CCc3cc(OC)c(OC)cc3[C@H]1Cc1cc(OC)c(OC)c(OC)c1)CC2.O=S(=O)([O-])c1ccccc1.O=S(=O)([O-])c1ccccc1 (stereo not given in full) | 100 |  | 1 | 6.83 | 10.92 | 9.75 |  | 8.75 |  |  |  |  |
| COc1cc2c(cc1OC)[C@@H](Cc1cc(OC)c(OC)c(OC)c1)[N@+](CCCOC(=O)CC/C=C/CCC(=O)OCCC[N@@+]1(CC3CCC3)CCc3cc(OC)c(OC)cc3[C@H]1Cc1cc(OC)c(OC)c(OC)c1)(CC1CCC1)CC2.[Cl-].[Cl-] | 100 |  | 2 | 8.92 | 15.17 | 15.38 |  | 8.5 |  |  |  |  |
| COc1cc2c(cc1OC)[C@@H](Cc1cc(OC)c(OC)c(OC)c1)[N+](C)(CCCOC(=O)c1ccccc1-c1ccccc1C(=O)OCCC[N+]1(C)CCc3cc(OC)c(OC)cc3[C@H]1Cc1cc(OC)c(OC)c(OC)c1)CC2 (stereo not given in full) | 0 |  |  |  |  |  |  |  |  |  |  |  |
| COc1cc2c(cc1OC)[C@@H](Cc1cc(OC)c(OC)c(OC)c1)[N@+](CCCOC(=O)CC/C=C/CCC(=O)OCCC[N@@+]1(CC3CC3)CCc3cc(OC)c(OC)cc3[C@H]1Cc1cc(OC)c(OC)c(OC)c1)(CC1CC1)CC2.[Cl-].[Cl-] | 45 |  | 2 | 5 | 7.87 |  |  | 2.5 |  |  |  |  |
| COc1cc2c(cc1OC)[C@@H](Cc1cc(OC)c(OC)c(OC)c1)[N+](C)(CCC(=O)OCCCCCCOC(=O)CC[N+]1(C)CCc3cc(OC)c(OC)cc3[C@H]1Cc1cc(OC)c(OC)c(OC)c1)CC2.O=S(=O)([O-])c1ccccc1.O=S(=O)([O-])c1ccccc1 (stereo not given in full) | 100 |  | 1 | 9.92 | 12.17 | 49.83 |  | 44.92 |  |  |  |  |
| COc1cc2c(cc1OC)[C@@H](Cc1cc(OC)c(OC)c(OC)c1)[N+](CCCOC(=O)CC/C=C/CCC(=O)OCCC[N+]1(CC3CC3)CCc3cc(OC)c(OC)cc3[C@H]1Cc1cc(OC)c(OC)c(OC)c1)(CC1CC1)CC2.[Cl-].[Cl-] (stereo not given in full) | 100 |  | 1.25 | 6.83 | 9.58 | 5.17 |  | 3.67 |  |  |  |  |
| COc1cc2c(cc1OC)[C@@H](Cc1cc(OC)c(OC)c(OC)c1)[N+](C)(CCC(=O)OCC(C)(C)COC(=O)CC[N+]1(C)CCc3cc(OC)c(OC)cc3[C@H]1Cc1cc(OC)c(OC)c(OC)c1)CC2 (stereo not given in full) | 0 |  |  |  |  |  |  |  |  |  |  |  |
| COc1cc2c(cc1OC)[C@@H](Cc1cc(OC)c(OC)c(OC)c1)[N+](C)(CCC(=O)OCCCOC(=O)CC[N+]1(C)CCc3cc(OC)c(OC)cc3[C@H]1Cc1cc(OC)c(OC)c(OC)c1)CC2.O=S(=O)([O-])c1ccccc1.O=S(=O)([O-])c1ccccc1 (stereo not given in full) | 100 |  | 1.08 | 7.92 | 9.83 | 9.75 |  | 7.58 |  |  |  |  |
| COc1cc2c(cc1OC)[C@@H](Cc1cc(OC)c(OC)c(OC)c1)[N+](C)(CCC(=O)OCC(F)(F)COC(=O)CC[N+]1(C)CCc3cc(OC)c(OC)cc3[C@H]1Cc1cc(OC)c(OC)c(OC)c1)CC2 (stereo not given in full) | 0 |  |  |  |  |  |  |  |  |  |  |  |
